Data on 25 compounds can be found in patent publication US9499547B2 (BAYER INTELLECTUAL PROPERTY GMBH, priority 2011, dated 2016).

The structures appear in SMILES notation. Counter-ions that a name gives are not always drawn.

The target in experiment [1] is T1, human full-length MKNK1 (Homo sapiens (Human), UniProt Q9BUB5, T344D). Kind of experiment: MKNK1 kinase high ATP assay (TR-FRET-based). The format is biochemical. As to conditions: 2 mM ATP final conc.; 15 min preincubation with enzyme. The protocol:
MKNK1 Kinase High ATP Assay
MKNK1-inhibitory activity at high ATP of compounds of the present invention after their preincubation with MKNK1 was quantified employing the TR-FRET-based MKNK1 high ATP assay as described in the following paragraphs.
As substrate for the kinase reaction the biotinylated peptide biotin-Ahx-[…] (C-terminus in amide form) was used, which can be purchased e.g. from the company Biosyntan (Berlin-Buch, Germany).
(§1) For the assay 50 nL of a 100 fold concentrated solution of the test compound in DMSO was pipetted into a black low volume 384 well microtiter plate (Greiner Bio-One, Frickenhausen, Germany), 2 μL of a solution of MKNK1 in aqueous assay buffer [50 mM HEPES pH 7.5, 5 mM magnesium chloride, 1.0 mM dithiothreitol, 0.005% (v/v) Nonidet-P40 (Sigma)] was added and the mixture was incubated for 15 min at 22° C. to allow pre-binding of the test compounds to the enzyme before the start of the kinase reaction. Then the kinase reaction was started by the addition of 3 μL of a solution of adenosine-tri-phosphate (ATP, 3.3 mM=>final conc. in the 5 μL assay volume is 2 mM) and substrate (0.1 μM=>final conc. in the 5 μL assay volume is 0.06 μM) in assay buffer and the resulting mixture was incubated for a reaction time of 30 min at 22° C. The concentration of MKNK1 was adjusted depending of the activity of the enzyme lot and was chosen appropriate to have the assay in the linear range, typical concentrations were in the range of 0.003 μg/mL. The reaction was stopped by the addition of 5 μL of a solution of TR-FRET detection reagents (5 nM streptavidine-XL665 [Cisbio Bioassays, Codolet, France] and 1 nM anti-ribosomal protein S6 (pSer236)-antibody from Invitrogen [#44921G] and 1 nM LANCE EU-W1024 labeled ProteinG [Perkin-Elmer, product no. AD0071]) in an aqueous EDTA-solution (100 mM EDTA, 0.1% (w/v) bovine serum albumin in 50 mM HEPES pH 7.5).
(§2) The resulting mixture was incubated for 1 h at 22° C. to allow the formation of complex between the phosphorylated biotinylated peptide and the detection reagents. Subsequently the amount of phosphorylated substrate was evaluated by measurement of the resonance energy transfer from the Eu-chelate to the streptavidine-XL. Therefore, the fluorescence emissions at 620 nm and 665 nm after excitation at 350 nm were measured in a TR-FRET reader, e.g. a Rubystar (BMG Labtechnologies, Offenburg, Germany) or a Viewlux (Perkin-Elmer). The ratio of the emissions at 665 nm and at […] was taken as the measure for the amount of phosphorylated substrate. The data were normalised (enzyme reaction without inhibitor=0% inhibition, all other assay components but no enzyme=100% inhibition).
In general terms: In TR-FRET formats the signal depends on donor and acceptor labels being close together.

Experiment [2] addresses T1, human full-length MKNK1. In words: MKNK1 kinase assay (MKNK1 TR-FRET assay). The experiment is classed as biochemical. As to conditions: 10 μM ATP final conc.; 15 min preincubation with enzyme. The protocol:
MKNK1-inhibitory activity of compounds of the present invention was quantified employing the MKNK1 TR-FRET assay as described in the following paragraphs.
As substrate for the kinase reaction the biotinylated peptide biotin-Ahx-[…] (C-terminus in amide form) was used which can be purchased e.g. form the company Biosyntan (Berlin-Buch, Germany).
as §1, with “16.7 μM=>final” for “3.3 mM=>final”, “10 μM)” for “2 mM)”, “45” for “30”, “0.05 μg/ml.” for “0.003 μg/mL.”
as §2

T1 sequence (Q9BUB5 other isoform, or with tags, fused parts or gaps T344D): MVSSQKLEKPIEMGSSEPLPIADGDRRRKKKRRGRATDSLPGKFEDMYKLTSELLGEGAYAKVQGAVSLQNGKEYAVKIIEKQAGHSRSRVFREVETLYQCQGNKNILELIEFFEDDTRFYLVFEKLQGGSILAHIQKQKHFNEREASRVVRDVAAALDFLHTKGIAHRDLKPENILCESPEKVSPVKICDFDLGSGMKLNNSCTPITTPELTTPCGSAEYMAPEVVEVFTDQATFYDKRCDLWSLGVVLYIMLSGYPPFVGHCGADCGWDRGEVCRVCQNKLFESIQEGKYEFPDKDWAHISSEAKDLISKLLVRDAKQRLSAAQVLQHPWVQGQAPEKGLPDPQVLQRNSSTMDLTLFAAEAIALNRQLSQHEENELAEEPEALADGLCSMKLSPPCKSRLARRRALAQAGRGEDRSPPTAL

`NC[C@H]1C[C@H](Oc2ccc3ncc(-c4cc5ccccc5o4)n3n2)C1` [Example 20, 1-(trans-3-{[3-(1-Benzofuran-2-yl)imidazo[1,2-b]pyridazin-6-yl]oxy}cyclobutyl)-methanamine]: the IC50 (usually the concentration that inhibits the measured activity by half) against human full-length MKNK1 [1] came to 6 nM; on human full-length MKNK1 [2], 4 nM.
`N[C@H](COc1ccc2ncc(-c3cc4ccccc4o3)n2n1)c1ccc(Cl)cc1` [Example 62, (1S)-2-{[3-(1-benzofuran-2-yl)imidazo[1,2-b]pyridazin-6-yl]oxy}-1-(4-chlorophenyl)ethanamine] registered a 50% inhibitory concentration (IC50) against human full-length MKNK1 [2] of 31 nM.
In the case of `NCC(CN1CCOCC1)Oc1ccc2ncc(-c3cc4ccccc4o3)n2n1` (centres unmarked) [Example 31, 2-{[3-(1-Benzofuran-2-yl)imidazo[1,2-b]pyridazin-6-yl]oxy}-3-(morpholin-4-yl)-propan-1-amine], on human full-length MKNK1 [1], the IC50 is 78 nM.
On to `Cc1ccc2oc(-c3cnc4ccc(O[C@H](C)CN)nn34)cc2c1` [Example 49, (2R)-2-{[3-(5-Methyl-1-benzofuran-2-yl)imidazo[1,2-b]pyridazin-6-yl]oxy}-propan-1-amine], for which the results for the IC50 against human full-length MKNK1 [1] and against human full-length MKNK1 [2] were 154 nM and 88 nM, respectively.
The like results for `N[C@H]1CCC[C@H]1Oc1ccc2ncc(-c3cc4ccccc4o3)n2n1` [Example 25, (1S,2R)-2-{[3-(1-Benzofuran-2-yl)imidazo[1,2-b]pyridazin-6-yl]oxy}cyclopentanamine salt with formic acid] were, in that order, 22 nM and 7 nM.
The like results for `NCC(CN)Oc1ccc2ncc(-c3cc4ccccc4o3)n2n1` [Example 34, 2-{[3-(1-Benzofuran-2-yl)imidazo[1,2-b]pyridazin-6-yl]oxy}propane-1,3-diamine] were, in that order, 92 nM and 39 nM.
Turning to `NC[C@H](Oc1ccc2ncc(-c3cc4ccccc4o3)n2n1)c1ccccc1` [Example 16, (2R)-2-{[3-(1-Benzofuran-2-yl)imidazo[1,2-b]pyridazin-6-yl]oxy}-2-phenylethanamine], the half-inhibitory concentration (IC50) was 49 nM at human full-length MKNK1 [1] and 26 nM at human full-length MKNK1 [2].
For `C[C@H](CN)Oc1ccc2ncc(-c3cc4cccc(F)c4o3)n2n1` [Example 48, (2R)-2-{[3-(7-Fluoro-1-benzofuran-2-yl)imidazo[1,2-b]pyridazin-6-yl]oxy}-propan-1-amine], the values for the half-inhibitory concentration (IC50) on human full-length MKNK1 [1] and at human full-length MKNK1 [2] were 115 nM and 71 nM, respectively.
Turning to `NC(COc1ccc2ncc(-c3cc4ccccc4o3)n2n1)c1cccnc1` (centres unmarked) [Example 63, 2-{[3-(1-benzofuran-2-yl)imidazo[1,2-b]pyridazin-6-yl]oxy}-1-(pyridin-3-yl)ethanamine], on human full-length MKNK1 [2], the IC50 came to 54 nM.
As to `NCCOCCOc1ccc2ncc(-c3cc4ccccc4o3)n2n1` [Example 21, 2-(2-{[3-(1-Benzofuran-2-yl)imidazo[1,2-b]pyridazin-6-yl]oxy}ethoxy)ethanamine], the concentration for half-maximal inhibition (IC50) against human full-length MKNK1 [1] turned out to be 14 nM.
As to `NCC(Cc1ccncc1)Oc1ccc2ncc(-c3cc4ccccc4o3)n2n1` (centres unmarked) [Example 54, 2-{[3-(1-Benzofuran-2-yl)imidazo[1,2-b]pyridazin-6-yl]oxy}-3-(pyridin-4-yl)-propan-1-amine], 19 nM corresponded to half-maximal inhibition on human full-length MKNK1 [1] (IC50).
On to `NCC(Oc1ccc2ncc(-c3cc4ccccc4o3)n2n1)C1CC1` (centres unmarked) [Example 30, 2-{[3-(1-Benzofuran-2-yl)imidazo[1,2-b]pyridazin-6-yl]oxy}-2-cyclopropylethanamine], for which the IC50 at human full-length MKNK1 [1] was 75 nM; on human full-length MKNK1 [2], 41 nM.
On to `NCCC(Oc1ccc2ncc(-c3cc4ccccc4o3)n2n1)c1ccc(F)cc1` (centres unmarked) [Example 64], for which, at human full-length MKNK1 [2], the half-maximal inhibitory concentration (IC50) amounted to 57 nM.
The same measure, in the same setting: the result for `NC[C@H](Oc1ccc2ncc(-c3cc4ccccc4o3)n2n1)c1cccnc1` [Example 55, (2R)-2-{[3-(1-benzofuran-2-yl)imidazo[1,2-b]pyridazin-6-yl]oxy}-2-(pyridin-3-yl)ethanamine] reads 16 nM; that for `NCC(Oc1ccc2ncc(-c3cc4ccccc4o3)n2n1)c1ccc(F)cc1` (centres unmarked) [Example 56, 2-{[3-(1-benzofuran-2-yl)-imidazo-[1,2-b]-pyridazin-6-yl]oxy}-2-(4-fluoro-phenyl)-ethanamine], 40 nM.
Still for that read-out and setting: the result for `CC(C)Oc1cccc(C(CN)Oc2ccc3ncc(-c4cc5ccccc5o4)n3n2)c1` (centres unmarked) [Example 58, 2-{[3-(1-benzofuran-2-yl)-imidazo-[1,2-b]-pyridazin-6-yl]oxy}-2-(3-iso-propoxy-phenyl)-ethanamine] reads 20 nM.
At human full-length MKNK1 [1], `C=CCCC(CN)Oc1ccc2ncc(-c3cc4ccccc4o3)n2n1` (centres unmarked) [Example 28, 2-{[3-(1-Benzofuran-2-yl)imidazo[1,2-b]pyridazin-6-yl]oxy}hex-5-en-1-amine] returned an IC50 of 45 nM.
Same read-out and setting: the result for `N[C@@H]1CCCC[C@H]1Oc1ccc2ncc(-c3cc4ccccc4o3)n2n1` [Example 23, (1R,2R)-2-{[3-(1-Benzofuran-2-yl)imidazo[1,2-b]pyridazin-6-yl]oxy}cyclohexanamine] reads 18 nM.
In the case of `NCC(Oc1ccc2ncc(-c3cc4ccccc4o3)n2n1)c1ccccn1` (centres unmarked) [Example 57, 2-{[3-(1-benzofuran-2-yl)-imidazo-[1,2-b]-pyridazin-6-yl]oxy}-2-(pyridin-2-yl)-ethanamine], the IC50 against human full-length MKNK1 [2] was found to be 94 nM.
On the same count and under the same terms, in the case of `NCC(Oc1ccc2ncc(-c3cc4ccccc4o3)n2n1)c1cccc(C(F)(F)F)c1` (centres unmarked) [Example 59, 2-{[3-(1-benzofuran-2-yl)-imidazo-[1,2-b]-pyridazin-6-yl]oxy}-2-[3-(tri-fluoro-methyl)-phenyl]-ethanamine] it was 37 nM.
Consider `N[C@H](COc1ccc2ncc(-c3cc4ccccc4o3)n2n1)c1ccc(F)cc1` [Example 61, (1S)-2-{[3-(1-benzofuran-2-yl)imidazo[1,2-b]pyridazin-6-yl]oxy}-1-(4-fluorophenyl)ethanamine], for which the IC50 at human full-length MKNK1 [2] turned out to be 29 nM.
In the case of `NCC(Oc1ccc2ncc(-c3cc4ccccc4o3)n2n1)c1ccc(F)cc1F` (centres unmarked) [Example 60, 2-{[3-(1-benzofuran-2-yl)-imidazo-[1,2-b]-pyridazin-6-yl]oxy}-2-(2,4-di-fluoro-phenyl)-ethanamine], the IC50 against human full-length MKNK1 [2] turned out to be 39 nM.
Regarding `NC(COc1ccc2ncc(-c3cc4ccccc4o3)n2n1)C1CCOCC1` (centres unmarked) [Example 32, 2-{[3-(1-Benzofuran-2-yl)imidazo[1,2-b]pyridazin-6-yl]oxy}-1-(tetrahydro-2H-pyran-4-yl)ethanamine], the IC50 on human full-length MKNK1 [1] was 79 nM.
For `NCC(Cc1ccc(F)cc1)Oc1ccc2ncc(-c3cc4ccccc4o3)n2n1` (centres unmarked) [Example 53, 2-{[3-(1-Benzofuran-2-yl)imidazo[1,2-b]pyridazin-6-yl]oxy}-3-(4-fluorophenyl)-propan-1-amine], the IC50 on human full-length MKNK1 [1] is 46 nM.
In the case of `NC1(COc2ccc3ncc(-c4cc5ccccc5o4)n3n2)CCC1` [Example 27, 1-({[3-(1-Benzofuran-2-yl)imidazo[1,2-b]pyridazin-6-yl]oxy}methyl)cyclobutanamine], the concentration for half-maximal inhibition (IC50) on human full-length MKNK1 [1] turned out to be 29 nM.
